Assay results: patent US11116848B2, “Selective UV crosslinking of peptides and functional moieties to immunoglobulins” (University of Notre Dame du Lac, priority 2013, dated 2021)

How the values were obtained:
[1] = test system: CD20 negative myeloma cell lines, U266, H929, and MM.1S; assay: CD20 antigen detection flow cytometry assay; type: cell-based; settings: conjugate 200 nM, photocrosslinked at 1 J/cm^2; U266, H929, MM.1S
Description: IM9, U266, H929, and MM.1S cell lines were cultured in RPMI 1640 media containing 10% FBS, 2 mM L-glutamine, 100 U/mL penicillin, and 100 μg/mL streptomycin. […] IBA-FITC was photocrosslinked to Rituximab at the indicated UV energies. All cell lines were used at a density of 0.5×10^6 cells/mL in blocking buffer (1.5% BSA in PBS pH 7.4) and initially incubated for 30 min on ice. […] Samples were washed three times and analyzed on a Guava easyCyte 8HT flow cytometer.

[2] = target: nucleotide binding site (NBS); settings: read-out: previously reported Kd for IBA/NBS interactions; cited from earlier work

| Compound | binding to CD20 negative cell lines [1] | Kd [2] |
| --- | --- | --- |
| Rituximab-IBA-FITC conjugate | negligible binding |  |
| O=C(O)CCCc1c[nH]c2ccccc12 [IBA, indole-3-butyric acid] |  | 1 to 8 µM |
